Laboratory results taken from the supplement of paper PMC10307832.

Experiments:
[1] = compound: C1=CC2=NC=CN=C2C=C1/C=C/3\C(=O)NC(=O)S3 + COc1cc2c(Oc3ccc(NC(=O)C4(C(=O)Nc5ccc(F)cc5)CC4)cc3F)ccnc2cc1OCCCN1CCOCC1 [Foretinib] (partner 0.25 µM); test: relative viability (nuclei count vs DMSO), 5 days (fraction); higher = more cells survive
Method in brief: (§1)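 Medians of duplicate plates are given as relative viability. That measure is the nuclei count in treated wells divided by the count in vehicle wells. Counts were taken on 4× images of lung cancer cell lines in 1536-well plates, 5 days after pin-tool dosing the day after seeding with one drug alone or a fixed anchor-drug dose plus five library-drug doses (not always all listed) in √10 steps.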

BGJ398 + Tozasertib = compound: CCN1CCN(c2ccc(Nc3cc(N(C)C(=O)Nc4c(Cl)c(OC)cc(OC)c4Cl)ncn3)cc2)CC1 [BGJ398] + Cc1cc(Nc2cc(N3CCN(C)CC3)nc(Sc3ccc(NC(=O)C4CC4)cc3)n2)n[nH]1 [Tozasertib] (partner 0.1 µM); test: as above
Method in brief: as §1

| Cell Line | relative viability ([1]; first compound 0.02 µM) | relative viability ([1]; first compound 0.06325 µM) | relative viability ([1]; first compound 0.2 µM) | relative viability ([1]; first compound 0.6325 µM) | relative viability ([1]; first compound 2 µM) | relative viability (BGJ398 + Tozasertib; first compound 0.01 µM) | relative viability (BGJ398 + Tozasertib; first compound 0.03162 µM) | relative viability (BGJ398 + Tozasertib; first compound 0.1 µM) | relative viability (BGJ398 + Tozasertib; first compound 0.3162 µM) | relative viability (BGJ398 + Tozasertib; first compound 1 µM) |
| --- | --- | --- | --- | --- | --- | --- | --- | --- | --- | --- |
| 201T | 0.866 | 0.977 | 1.12 | 1.06 | 0.758 | 1.05 | 0.877 | 0.965 | 0.914 | 0.91 |
| NCI-H2170 | 0.962 | 1.12 | 1.05 | 1.01 | 1.02 | 0.804 | 0.714 | 0.687 | 0.694 | 0.78 |
| NCI-H460 | 0.936 | 0.833 | 1.03 | 0.953 | 1 | 0.446 | 0.558 | 0.437 | 0.372 | 0.456 |
| NCI-H661 | 1 | 1.05 | 1.07 | 0.957 | 1.08 | 0.325 | 0.369 | 0.365 | 0.354 | 0.362 |
| HCC-15 | 0.981 | 1.02 | 1.01 | 1.03 | 0.928 | 0.351 | 0.43 | 0.436 | 0.349 | 0.389 |
| ABC-1 | 0.93 | 1.24 | 0.875 | 1.27 | 0.999 | 0.186 | 0.168 | 0.197 | 0.173 | 0.198 |
| LCLC-103H | 0.864 | 0.711 | 0.813 | 0.653 | 0.648 | 0.429 | 0.445 | 0.424 | 0.487 | 0.341 |
| NCI-H441 | 0.925 | 1.09 | 1.06 | 0.925 | 0.668 | 0.702 | 0.652 | 0.529 | 0.615 | 0.687 |
| EPLC-272H | 0.846 | 0.693 | 0.696 | 0.664 | 0.611 | 0.17 | 0.276 | 0.203 | 0.288 | 0.227 |
